Measurements reported in article PMC12799524, “Putative new biomarkers for renal transporter-mediated drug-drug interactions: Characterization as substrates of organic cation transporter 2, multidrug and toxin extrusion protein 1, and other important drug transporters” (Drug Metabolism and Disposition, 2025).
Entries after “also recorded” stand apart in the source; their conditions may differ.

Tests used:
[1] = biological target: T1, MATE1 (Homo sapiens, UniProt Q96FL8); assay: Concentration-dependent transport in HEK-MATE1 cells (Km, Vmax); assay type: in vitro ADME; design: expressed in transfected cells; host or cells: HEK293 (HEK-MATE1); conditions: HEK-MATE1 net uptake; for Vmax for MATE1-mediated uptake: 5 min; for Km at 5 min: human, HEK-MATE1 cells, read-out: Km for MATE1-mediated transport
T1 sequence (Q96FL8 1-570): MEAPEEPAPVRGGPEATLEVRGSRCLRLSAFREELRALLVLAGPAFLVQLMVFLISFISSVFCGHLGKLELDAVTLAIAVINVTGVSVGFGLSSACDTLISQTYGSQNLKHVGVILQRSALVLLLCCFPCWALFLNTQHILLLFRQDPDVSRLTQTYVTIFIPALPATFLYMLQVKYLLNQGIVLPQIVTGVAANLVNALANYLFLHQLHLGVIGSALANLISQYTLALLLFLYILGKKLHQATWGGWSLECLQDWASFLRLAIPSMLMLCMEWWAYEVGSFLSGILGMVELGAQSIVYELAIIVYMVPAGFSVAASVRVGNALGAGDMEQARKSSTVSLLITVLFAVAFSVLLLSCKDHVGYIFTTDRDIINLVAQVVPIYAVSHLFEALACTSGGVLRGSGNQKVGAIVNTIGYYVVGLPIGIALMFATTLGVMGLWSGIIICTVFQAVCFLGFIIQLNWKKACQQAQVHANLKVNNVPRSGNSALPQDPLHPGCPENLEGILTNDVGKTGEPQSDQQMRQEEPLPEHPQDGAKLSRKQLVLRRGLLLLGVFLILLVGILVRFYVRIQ
Experimental: (§1) Data are presented in percentage of respective controls (which were set to 100%) or in pmol × mg protein^–1 × min^–1 for concentration-dependent transport as mean ± SEM. All results were normalized to the mean protein concentrations of the cell lysates in the respective control experiments.
(§2) Experiments with putative biomarkers in HEK-OCT2 or HEK-MATE1 cells were performed with 6 independent biological replicates, whereas all other experiments involving HEK, MDCK, or Caco-2 cells were performed with 4 independent biological replicates. Pairwise comparisons were analyzed for statistical significance with two-tailed unpaired Student’s t test and multiple comparisons by one-way ANOVA with subsequent Tukey-Kramer multiple comparison test by using GraphPad Prism 10.0.2 (GraphPad Software). A value of P < .05 was considered as statistically significant. Km and Vmax values were determined with Michaelis-Menten enzyme kinetics curve fit using GraphPad Prism 10.0.2.

[2] = biological target: T2, human OCT2 (Homo sapiens, UniProt O15244); assay: Concentration-dependent transport in HEK-OCT2 cells (Km, Vmax); conditions: concentrations up to 2000 μM; Km not calculable
T2 sequence (O15244 1-555): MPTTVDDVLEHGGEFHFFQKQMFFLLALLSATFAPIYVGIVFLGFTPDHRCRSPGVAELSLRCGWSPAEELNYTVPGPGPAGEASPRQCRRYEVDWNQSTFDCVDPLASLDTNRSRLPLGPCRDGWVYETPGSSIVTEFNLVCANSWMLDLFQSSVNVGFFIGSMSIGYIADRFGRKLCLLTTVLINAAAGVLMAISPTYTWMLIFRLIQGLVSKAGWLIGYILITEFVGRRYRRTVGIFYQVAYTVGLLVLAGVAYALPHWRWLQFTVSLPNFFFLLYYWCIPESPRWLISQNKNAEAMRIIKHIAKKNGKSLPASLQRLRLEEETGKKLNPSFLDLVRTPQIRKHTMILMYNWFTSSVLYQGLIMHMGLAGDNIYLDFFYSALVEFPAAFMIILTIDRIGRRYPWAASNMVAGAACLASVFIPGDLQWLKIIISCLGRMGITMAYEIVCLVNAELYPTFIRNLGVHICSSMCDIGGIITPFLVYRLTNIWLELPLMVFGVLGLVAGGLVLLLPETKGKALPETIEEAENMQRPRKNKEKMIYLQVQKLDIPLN
Experimental: as §1, §2

[3] = biological target: T3, human OAT3 (Homo sapiens, UniProt Q8TCC7); assay: Uptake assay in HEK-OAT3 vs HEK-VC cells; conditions: for In Vitro OAT3 (substrate class): HEK cells
T3 sequence (Q8TCC7 1-542): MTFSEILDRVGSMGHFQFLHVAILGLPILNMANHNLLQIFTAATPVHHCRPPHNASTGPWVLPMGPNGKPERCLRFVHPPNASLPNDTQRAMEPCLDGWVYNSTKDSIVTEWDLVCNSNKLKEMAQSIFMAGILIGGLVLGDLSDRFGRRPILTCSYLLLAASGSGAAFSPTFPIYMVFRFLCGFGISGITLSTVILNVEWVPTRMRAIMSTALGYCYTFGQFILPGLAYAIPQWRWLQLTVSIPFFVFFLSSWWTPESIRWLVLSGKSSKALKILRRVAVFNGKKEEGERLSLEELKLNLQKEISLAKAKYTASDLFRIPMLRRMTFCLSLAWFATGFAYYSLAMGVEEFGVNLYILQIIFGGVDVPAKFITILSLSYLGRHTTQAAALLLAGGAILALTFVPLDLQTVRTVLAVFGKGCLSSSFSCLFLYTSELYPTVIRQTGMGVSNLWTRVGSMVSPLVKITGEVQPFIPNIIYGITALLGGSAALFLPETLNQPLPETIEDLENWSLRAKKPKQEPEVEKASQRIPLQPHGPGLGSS
Experimental: Using both plasmids, stably transfected HEK cells overexpressing human OAT1 or OAT3 were established as described.[24] HEK cell clones with the highest expression of the SLC22A6 or the SLC22A8 mRNA were selected by quantitative reverse-transcription polymerase chain reaction and functionally characterized by standardized uptake assays using PAH (30 μM) or E3S (1 μM) as prototypic substrates for OAT1 (HEK-OAT1) or OAT3 (HEK-OAT3), respectively, as described below.
Uptake assays into HEK cells stably overexpressing transport proteins and their respective VC were performed as previously described with minor modifications.[19] In brief, cells were seeded in poly-D-lysine–coated (0.1 mg/mL) 12-well plates with a density of 7 × 10^5 cells per well. Twenty-four hours after seeding, cells were induced with 10 mM sodium butyrate to enhance protein expression. Transport experiments were performed 48 hours after seeding. Cells were washed once with transport buffer at 37 °C. Afterward, cells were incubated with transport buffer containing (putative) substrates at the desired concentration at 37 °C for 5 minutes. Inhibition of OCT2/MATE1-mediated transport was investigated by adding 50 μM of cimetidine to the above-mentioned transport buffer containing putative substrates. A mixture of unlabeled and [^3H]-labeled substrate was used for control experiments. The buffer for the transport experiments contained 142 mM NaCl, 5 mM KCl, 1 mM K2HPO4, 1.2 mM MgSO4, 1.5 mM CaCl2, 5 mM glucose, and 12.5 mM HEPES. The pH value was set to 7.3, except for HEK-MATE1 cells and their respective VC, in which pH was set to 8.0.
At the end of the incubation period, cells were put on ice, the transport buffer was removed, and cells were rinsed thrice with ice-cold 0.9% NaCl in water. Then, cells were lysed with 700 μL of an ice-cold mixture of MeOH and water (80:20) containing the recovery standards [^2H5]-tryptophan (1 μg/mL) and [^2H3]-N8-acetylspermidine (0.1 μg/mL). Subsequently, lysates were analyzed with liquid chromatography coupled to tandem mass spectrometry (LC-MS).
as §1

[4] = tested on: OCT2; conditions: read-out: Km value for OCT2; ref Ma et al 17; cited from earlier work
[5] = tested on: OCT1; conditions: read-out: Km for OCT1; cited from earlier work

Uptake ratio in HEK-OAT3 cells compared to HEK-VC cells ([3]; 100 μM substrate, 5 minutes) [%] | Uptake ratio in HEK-OAT3 cells compared to HEK-VC cells ([3]; 10 μM substrate, 5 minutes) [%] | Uptake ratio for OAT3 (HEK-OAT3 vs HEK-VC) ([3]; 5 minutes) | SMILES | Vmax for MATE1-mediated uptake [1] [pmol*mg protein^-1*min^-1] | Km at 5 min [1] [µM] | Saturation of net uptake in HEK-OCT2 cells [2] | In Vitro OAT3 (substrate class) [3] | Km [4] [µM] | Km [5] [µM]
 |  |  | Cn1cnc(CCN)c1 [1-Methylhistamine, 1-methylhistamine] | 441.4 ± 50.5 | 307 ± 88.1 | did not result in a saturation; also recorded: not saturable | - |  | 
 |  |  | C[N+](C)(C)CCCCC(=O)[O-] [5-Amino valeric acid betaine, 5-amino valeric acid betaine] |  |  |  | - |  | 
186 |  |  | NCCc1c[nH]c2ccc(O)cc12 [Serotonin, serotonin] | 154.3 ± 7.3 | 52.7 ± 10.9 |  | 0 (significant uptake in HEK cells, but less than 300% of respective control cells or significant reduction of transcellular transport in Caco-2 cells, but reduction not below 50% of respective control without valspodar) | 539 | 197 ± 42
 | 230 | above 2 fold | NCCc1ccc(O)cc1 [Tyramine, tyramine] |  |  |  | 0 (significant uptake in HEK cells, but less than 300% of respective control cells or significant reduction of transcellular transport in Caco-2 cells, but reduction not below 50% of respective control without valspodar) |  | 
